Test results published in paper PMC8908514 (ACS Omega, 2022).

Experiments:
[1] = In vitro hemolysis on human red blood cells; format: cell-based; details: red blood cells (2% final suspension), % Haemolysis
P. berghei ANKA = assay: Four day suppressive test in P. berghei-infected mice; format: in vivo, P. berghei (BALB/c mice)
[2] = Experimental complexation with iron; format: binding; details: ligand–iron(III), stoichiometry 1, text

Compound: CCN(CC)CCCC(C)Nc1ccnc2cc(Cl)ccc12 (stereo not shown) [CQ, chloroquine]
- hemolysis at 45 min, 1 mM [1]: 7.4%
- parasitemia reduction percentage (P. berghei ANKA; 20 mg kg^–1, day 4): 99.80%
- %P, percentage of parasitemia (P. berghei ANKA; 20 mg kg^–1 for 4 days, day 4 post-infection, n = 6): 0.2%
- binding constant [2]: about 6300 M^–1
